We go through seven molecules from US11236072B2, “N-[(pyrimidinylamino)propanyl]-,n-[pyridylamino)propanyl]- and n-[(pyrazinylaminol)propanyl]arylcarboxamides” (Boehringer Ingelheim International GmbH, priority 2017, dated 2022).

A value given as a limit tells only on which side of the number the result lay.

Test system in one series: not listed separately
Briefly: Assay C: metabolic stability in human liver microsomes (Human MST). The format is in vitro ADME. To be noted: pH 7.6; pooled human liver microsomes, 1 μM compound, 37° C.; read-out: Human MST t1/2. From the text:
Stability in human liver microsomes refers to the susceptibility of compounds to biotransformation in the context of selecting and/or designing drugs with favorable pharmacokinetic properties. The primary site of metabolism for many drugs is the liver. Human liver microsomes contain the cytochrome P450s (CYPs), and thus represent a model system for studying drug metabolization in vitro. Enhanced stability in human liver microsomes is associated with several advantages, including increased bioavailability and longer half-life, which can enable lower and less frequent dosing of patients. Thus, enhanced stability in human liver microsomes is a favorable characteristic for compounds that are to be used for drugs.
C. Assessment of Metabolic Stability in Human Liver Microsomes (Human MST)
The metabolic stability of the compounds according to the invention may be investigated as follows:
The metabolic degradation of the test compound is assayed at 37° C. with pooled human liver microsomes. The final incubation volume of 100 μL per time point contains TRIS buffer pH 7.6 at room temperature (0.1 M), MgCl2 (5 mM), microsomal protein (1 mg/mL) and the test compound at a final concentration of 1 μM. Following a short pre-incubation period at 37° C., the reactions are initiated by addition of beta-nicotinamide adenine dinucleotide phosphate, reduced form (NADPH, 1 mM), and terminated by transferring an aliquot into solvent after different time points. After centrifugation (10000 g, 5 min), an aliquot of the supernatant is assayed by LC-MS/MS for the amount of parent compound. The half-life (t1/2) is determined by the slope of the semi-logarithmic plot of the concentration-time profile.
`CCN(C(=O)c1cc(Cl)ccc1-n1nccn1)[C@@H](C)CNc1ncc(C(F)(F)F)cn1` [Example 3]: the half-life at 1 μM was 2.17 h.
Take `CCN(C(=O)c1cccc(F)c1-n1nccn1)[C@@H](C)CNc1ncc(Br)cn1` [Example 4]: the half-life at 1 μM was greater than 2.17 h.
The same measure, in the same setting: next, `CCN(C(=O)c1ccc(F)c(F)c1-c1ncccn1)[C@@H](C)CNc1ncc(C(F)(F)F)cn1` [Example 8]: greater than 2.17 h; `CCN(C(=O)c1cnc(C)nc1-c1ccccc1)[C@@H](C)CNc1ncc(Br)cn1` [Example 13]: 1.27 h.
Still for that read-out and setting: next, `C[C@@H](CNc1ncc(C(F)(F)F)cn1)N(C)C(=O)c1cccc(F)c1-c1ncccn1` [Example 9]: greater than 2.17 h.
The same measure, in the same setting: next, `C[C@@H](CNc1ncc(C(F)(F)F)cn1)N(CCF)C(=O)c1cccc(F)c1-n1nccn1` [Example 2]: greater than 2.17 h; `C[C@@H](CNc1ncc(C(F)(F)F)cn1)N(CC1CC1)C(=O)c1cccc(F)c1-n1nccn1` [Example 1]: 1.22 h.

For the next series, the system named is human MDR1 P-gp. Description: Assay D: efflux in MDCK cells transfected with the human MDR1 gene. Type of series: in vitro ADME, canine. To be noted: dog; MDCK-MDR1 monolayers, pH 7.4, 37° C.; read-out: MDCK efflux ratio (BA/AB). Here is the method:
The MDCK assay provides information on the potential of a compound to pass the blood brain barrier. Permeability measurements across polarized, confluent MDCK-MDR1 cell monolayers grown on permeable filter supports are used as an in vitro absorption model: apparent permeability coefficients (PE) of the compounds across the MDCK-MDR1 cell monolayers are measured (pH 7.4, 37° C.) in apical-to-basal (AB) and basal-to-apical (BA) transport direction. […] Identical or similar permeabilities in both transport directions indicate passive permeation, vectorial permeability points to additional active transport mechanisms. Higher PEBA than PEAB (PEBA/PEAB>5) indicates the involvement of active efflux mediated by MDR1 P-gp, which might compromises the goal to achieve sufficient brain exposure. Therefore this assay provides valuable support for selection of compounds applicable for further in vivo testing. High permeability not limited by efflux at the blood brain barrier is a favourable characteristic for compounds that are to be used for drugs acting primarily in the CNS
D. Assessment of Efflux in Madin-Darby Canine Kidney (MDCK) Cells Transfected with the Human MDR1 Gene
Apparent permeability coefficients (PE) of the compounds across the MDCK-MDR1 cell monolayers are measured (pH 7.4, 37° C.) in apical-to-basal (AB) and basal-to-apical (BA) transport direction. […] The compounds are assigned to permeability/absorption classes by comparison of the AB permeabilities with the AB permeabilities of reference compounds with known in vitro permeability and oral absorption in the human. Identical or similar permeabilities in both transport directions indicate passive permeation, vectorial permeability points to additional active transport mechanisms. Higher PEBA than PEAB indicates the involvement of active efflux mediated by MDR1 P-gp. Active transport is concentration-dependently saturable.
MDCK-MDR1 cells (1-2×10e5 cells/1 cm2 area) are seeded on filter inserts (Costar transwell polycarbonate or PET filters, 0.4 μm pore size) and cultured (DMEM) for 7 days. Subsequently, the MDR1 expression is boosted by culturing the cells with 5 mM sodium butyrate in full medium for 2 days. Compounds are dissolved in appropriate solvent (like DMSO, 1-20 mM stock solutions). Stock solutions are diluted with HTP-4 buffer (128.13 mM NaCl, 5.36 mM KCl, 1 mM MgSO4, 1.8 mM CaCl2, 4.17 mM NaHCO3, 1.19 mM Na2HPO4×7H2O, 0.41 mM NaH2PO4×H2O, 15 mM HEPES, 20 mM glucose, 0.25% BSA, pH 7.4) to prepare the transport solutions (0.1-300 μM compound, final DMSO<=0.5%). The transport solution (TL) is applied to the apical or basolateral donor side for measuring A-B or B-A permeability (3 filter replicates), respectively. The receiver side contains the same buffer as the donor side. Samples are collected at the start and end of experiment from the donor and at various time intervals for up to 2 hours also from the receiver side for concentration measurement by HPLC-MS/MS or scintillation counting. Sampled receiver volumes are replaced with fresh receiver solution.
On to `CCN(C(=O)c1cc(Cl)ccc1-n1nccn1)[C@@H](C)CNc1ncc(C(F)(F)F)cn1` [Example 3], for which the efflux ratio was less than 3.
For `CCN(C(=O)c1cccc(F)c1-n1nccn1)[C@@H](C)CNc1ncc(Br)cn1` [Example 4], the efflux ratio is less than 3.
On the same count and under the same terms, next, `CCN(C(=O)c1ccc(F)c(F)c1-c1ncccn1)[C@@H](C)CNc1ncc(C(F)(F)F)cn1` [Example 8]: less than 3.
Take `CCN(C(=O)c1cnc(C)nc1-c1ccccc1)[C@@H](C)CNc1ncc(Br)cn1` [Example 13]: the efflux ratio is less than 3.
For the molecule `C[C@@H](CNc1ncc(C(F)(F)F)cn1)N(C)C(=O)c1cccc(F)c1-c1ncccn1` [Example 9], the efflux ratio was less than 3.
In the case of `C[C@@H](CNc1ncc(C(F)(F)F)cn1)N(CCF)C(=O)c1cccc(F)c1-n1nccn1` [Example 2], the efflux ratio is less than 3.
On to `C[C@@H](CNc1ncc(C(F)(F)F)cn1)N(CC1CC1)C(=O)c1cccc(F)c1-n1nccn1` [Example 1], for which the efflux ratio is less than 3.

In the next series the target is T1, human Orexin 1 receptor (Homo sapiens, UniProt O43613).
T1 sequence (O43613 1-425): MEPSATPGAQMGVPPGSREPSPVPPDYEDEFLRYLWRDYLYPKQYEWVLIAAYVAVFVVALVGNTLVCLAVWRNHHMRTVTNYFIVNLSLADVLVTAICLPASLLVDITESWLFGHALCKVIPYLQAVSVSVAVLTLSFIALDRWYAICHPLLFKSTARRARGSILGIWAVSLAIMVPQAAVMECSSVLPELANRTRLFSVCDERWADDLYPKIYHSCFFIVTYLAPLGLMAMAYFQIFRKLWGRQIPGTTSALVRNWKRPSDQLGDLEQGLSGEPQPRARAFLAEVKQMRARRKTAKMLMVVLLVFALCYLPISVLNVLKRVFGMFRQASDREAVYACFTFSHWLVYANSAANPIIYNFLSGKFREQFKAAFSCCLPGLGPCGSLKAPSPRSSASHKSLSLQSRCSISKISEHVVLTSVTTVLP
Briefly: Assay A: in vitro testing of OX1R potency, OX1R IP1. The format is cell-based. The settings on record: 50 nM Orexin A concentration. From the text:
Chem. Genomics 2009, 3, 22-32.
A. In Vitro Testing of OX1R Potency: OX1R IP1
`CCN(C(=O)c1cc(Cl)ccc1-n1nccn1)[C@@H](C)CNc1ncc(C(F)(F)F)cn1` [Example 3]: the Kb was found to be 32 pM.
For `CCN(C(=O)c1cccc(F)c1-n1nccn1)[C@@H](C)CNc1ncc(Br)cn1` [Example 4], the Kb was determined as 116 pM.
Same read-out and setting: the same measure for `CCN(C(=O)c1ccc(F)c(F)c1-c1ncccn1)[C@@H](C)CNc1ncc(C(F)(F)F)cn1` [Example 8]: 14 pM; for `CCN(C(=O)c1cnc(C)nc1-c1ccccc1)[C@@H](C)CNc1ncc(Br)cn1` [Example 13]: 89 pM.
Same read-out and setting: next, `C[C@@H](CNc1ncc(C(F)(F)F)cn1)N(C)C(=O)c1cccc(F)c1-c1ncccn1` [Example 9]: 223 pM; `C[C@@H](CNc1ncc(C(F)(F)F)cn1)N(CCF)C(=O)c1cccc(F)c1-n1nccn1` [Example 2]: 670 pM; `C[C@@H](CNc1ncc(C(F)(F)F)cn1)N(CC1CC1)C(=O)c1cccc(F)c1-n1nccn1` [Example 1]: 214 pM.

Still in this series, the particulars now being: compared to Example 84 in WO2016/034882.
As for `CCN(C(=O)c1ccc(F)c(F)c1-c1ncccn1)[C@@H](C)CNc1ncc(C(F)(F)F)cn1` [Example 8], the “higher potency (OX1R)” value is listed as “over 150 fold”.
On to `C[C@@H](CNc1ncc(C(F)(F)F)cn1)N(C)C(=O)c1cccc(F)c1-c1ncccn1` [Example 9], for which the “higher potency (OX1R)” value was roughly 10 fold.
